Usually IC50 stands for the midpoint of a concentration-inhibition curve.

Values joined by “and” are separate entries in the source; they are usually repeats but may differ in a detail not shown here. Equal values may be shown once. Where a name gives a salt, the structure may show the parent alone. Bounds are passed on as bounds.

The text below walks through data of patent US20050009840A1 (SUGEN, INC., priority 2003, published 2005).

T1 sequence (P08581 1078-1345 limits assumed): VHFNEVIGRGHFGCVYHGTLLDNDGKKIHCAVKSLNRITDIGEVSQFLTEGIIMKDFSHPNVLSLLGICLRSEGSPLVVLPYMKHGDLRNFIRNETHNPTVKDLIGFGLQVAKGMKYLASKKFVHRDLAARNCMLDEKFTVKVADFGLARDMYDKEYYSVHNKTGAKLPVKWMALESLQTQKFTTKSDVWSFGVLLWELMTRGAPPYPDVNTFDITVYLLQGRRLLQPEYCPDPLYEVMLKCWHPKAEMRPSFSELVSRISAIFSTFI

One test addresses T1, Met kinase domain (GST fusion protein) (Homo sapiens, UniProt P08581).
T1 construct: Purified GST fusion protein containing the Met kinase domain
As to the kind of experiment: Met transphosphorylation assay (ELISA, poly(glu-tyr) substrate).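 Note: Cell-free ELISA with plate-bound poly(Glu:Tyr 4:1) phosphorylated by GST-fused Met kinase domain plus ATP and Mn2+, phosphotyrosine detected by anti-phosphotyrosine antibody with HRP and ABTS read-out.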 The conditions noted are these: Table 2; read-out: Met IC50. The test is classed as biochemical. For orientation: ELISA stands for enzyme-linked immunosorbent assay.
Take `Nc1ncc(-c2ccc(C(=O)NCCCN3CCOCC3)cc2)cc1OCc1ccccc1C(F)(F)F` [Example I-192, 4-[6-Amino-5-(2-trifluoromethyl-benzyloxy)-pyridin-3-yl]-N-(3-morpholin-4-yl-propyl)-benzamide]: the IC50 was found to be 3.8 µM.
As to `CC(=O)N1CCN(CCS(=O)(=O)Nc2cccc(-c3cnc(N)c(OCc4c(F)ccc(F)c4Cl)c3)c2)CC1` [Example I-255, 2-(4-Acetyl-piperazin-1-yl)-ethanesulfonic acid {3-[6-amino-5-(2-chloro-3,6-difluoro-benzyloxy)-pyridin-3-yl]-phenyl}-amide], the IC50 amounted to 0.68 µM.
On the same count and under the same terms, the same measure for `Nc1ncc(-c2ccc(NS(=O)(=O)CCN3CCC(O)CC3)cc2)cc1OCc1c(F)ccc(F)c1Cl` [Example I-246, 2-(4-Hydoxy-piperidin-1-yl)-ethanesulfonic acid {4-[6-amino-5-(2-chloro-3,6-difluoro-benzyloxy)-pyridin-3-yl]-phenyl}-amide]: 0.135 µM; for `Nc1ncc(-c2ccc(C(=O)N3CC[C@H](N)C3)cc2)cc1OCc1ccccc1C(F)(F)F` [Example I-186, [(3S)-3-Amino-pyrrolidin-1-yl]-{4-[6-amino-5-(2-trifluoromethyl-benzyloxy)-pyridin-3-yl]-phenyl}-methanone]: 0.79 µM.
Same read-out and setting: as for `CC(Oc1cc(-c2cccc(C(=O)N3C[C@@H](C)N[C@@H](C)C3)c2)cnc1N)c1c(F)ccc(F)c1Cl` (stereo partly drawn) [Example I-343], the figure is 0.16 µM.
The same measure, in the same setting: the same measure for `CN(C)C1CCN(C(=O)c2ccc(-c3cnc(N)c(OCc4ccc(C(C)(C)C)cc4)c3)cc2)C1` (stereo in doubt) [Example I-196, {4-[6-Amino-5-(4-tert-butyl-benzyloxy)-pyridin-3-yl]-phenyl}-[(3R)-3-dimethylamino-pyrrolidin-1-yl]-methanone]: 4.29 µM; for `CN1CCN(C(=O)c2ccc(-c3cnc(N)c(OCc4ccc(F)cc4Cl)c3)cc2)CC1` [Example I-207, {4-(6-Amino-5-(2-chloro-4-fluoro-benzyloxy)-pyridin-3-yl]-phenyl}-(4-methyl-piperazin-1-yl)-methanone]: 5 µM.

Still in this test, the particulars now being: plain numbers in column Met IC50 (μM) of Table 2; read-out: Met IC50.
On to `Nc1ncc(-c2cccnc2)cc1OCc1ccc(Cl)cc1` [Example I-497, 5-(4-Chloro-benzyloxy)-[3,3′]bipyridinyl-6-ylamine], for which the IC50 amounted to 14.1 µM.
`CC(Oc1cc(-c2ccc(C(=O)N3C[C@@H](C)N[C@@H](C)C3)cc2)cnc1N)c1c(Cl)cccc1Cl` (stereo partly drawn) [Example I-404, (4-{6-Amino-5-[1-(2,6-dichloro-phenyl)-ethoxy]-pyridin-3-yl}-phenyl)-((3R,5S)-3,5-dimethyl-piperazin-1-yl)-methanone]: the IC50 amounted to 0.052 µM.
Same read-out and setting: as for `Nc1ccc(-c2cnc(N)c(OCc3c(F)ccc(F)c3Cl)c2)cn1` [Example I-504, 5-(2-Chloro-3,6-difluoro-benzyloxy)-[3,3′]bipyridinyl-6,6′-diamine], the figure is 0.209 µM.
The same measure, in the same setting: the same measure for `CC(Oc1cc(C#CCNC(=O)N2CCC[C@H]2CN2CCCC2)cnc1N)c1c(Cl)ccc(F)c1Cl` (stereo partly drawn) [Example I-412, (S)-2-Pyrrolidin-1-ylmethyl-pyrrolidine-1-carboxylic acid (3-{6-amino-5-[1-(2,6-dichloro-3-fluoro-phenyl)-ethoxy]-pyridin-3-yl}-prop-2-ynyl)-amide]: 0.067 µM; for `CC(Oc1cc(C#CCNC(=O)NCCCN2CCOCC2)cnc1N)c1c(Cl)ccc(F)c1Cl` (stereo not drawn) [Example I-420, 1-(3-{6-Amino-5-[1-(2,6-dichloro-3-fluoro-phenyl)-ethoxy]-pyridin-3-yl}-prop-2-ynyl)-3-(3-morpholin-4-yl-propyl)-urea]: 0.064 µM; for `CC(Oc1cc(-c2ccc(NC(=O)N3CCN(C)CC3)cc2)cnc1N)c1c(F)ccc(F)c1Cl` (stereo not drawn) [Example I-382, 4-Methyl-piperazine-1-carboxylic acid (4-{6-amino-5-[1-(2-chloro-3,6-difluoro-phenyl)-ethoxy]-pyridin-3-yl}-phenyl)-amine]: 0.082 µM.
On the same count and under the same terms, the same measure for `CC(Oc1cc(C#CCNC(=O)CN(C)C)cnc1N)c1c(Cl)ccc(F)c1Cl` (stereo not drawn) [Example I-429, N-(3-{6-Amino-5-[1-(2,6-dichloro-3-fluoro-phenyl)-ethoxy]-pyridin-3-yl}-prop-2-ynyl)-2-dimethylamino-acetamide]: 0.022 µM; for `CC(Oc1cc(-c2cccc(C(=O)NCCN3CCCC3)c2)cnc1N)c1c(Cl)cccc1Cl` (stereo not drawn) [Example I-389, 3-{6-Amino-5-[1-(2,6-dichloro-phenyl)-ethoxy]-pyridin-3-yl}-N-(2-pyrrolidin-1-yl-ethyl)-benzamide]: 0.13 µM; for `CC(Oc1cc(-c2ccc(C(=O)NCCCN3CCCC3)cc2)cnc1N)c1c(Cl)cccc1Cl` (stereo not drawn) [Example I-406, 4-{6-Amino-5-[1-(2,6-dichloro-phenyl)-ethoxy]-pyridin-3-yl}-N-(3-pyrrolidin-1-yl-propyl)-benzamide]: 0.061 µM.
Consider `CC(Oc1cc(-c2cc3ccccc3s2)cnc1N)c1c(Cl)ccc(F)c1Cl` (stereo not drawn) [Example I-370, 5-Benzo[b]thiophen-2-yl-3-[1-(2,6-dichloro-3-fluoro-phenyl)-ethoxy]-pyridin-2-ylamine], for which the IC50 came to 1.95 µM.

The test is the same for the next values; noted with them: read-out: Met IC50.
With `CC(Oc1nc(-c2cccc(C(=O)N3CCC[C@H]3CN3CCCC3)c2)cnc1N)c1c(Cl)cccc1Cl` (stereo partly drawn) [II-173, (3-{5-Amino-6-[1-(2,6-dichloro-phenyl)-ethoxy]-pyrazin-2-yl}-phenyl)-((S)-2-pyrrolidin-1-ylmethyl-pyrrolidin-1-yl)-methanone], the IC50 was 0.18 µM.
Still for that read-out and setting: the same measure for `Nc1ncc(Br)cc1OCc1ccccc1` [I(b), 3-Benzyloxy-5-bromo-pyridin-2-ylamine]: over 20 µM; for `CC(Oc1nc(-c2ccc(C(=O)N3C[C@@H](C)N[C@@H](C)C3)cc2)cnc1N)c1c(F)ccc(F)c1Cl` (stereo partly drawn) [II-112]: 0.19 µM; for `CC(Oc1nc(-c2ccc(NC(=O)NC3CCN(C)CC3)cc2)cnc1N)c1c(Cl)ccc(F)c1Cl` (stereo not drawn) [II-192, 1-(4-{5-Amino-6-[1-(2,6-dichloro-3-fluoro-phenyl)-ethoxy]-pyrazin-2-yl}-phenyl)-3-(1-methyl-piperidin-4-yl)-urea]: 0.052 µM.
On the same count and under the same terms, as for `Nc1ncc(-c2cccc(NS(=O)(=O)CCN3CCN(C(=O)CO)CC3)c2)nc1OCc1c(F)ccc(F)c1Cl` [II-29], the figure is 1.82 µM; as for `CC(Oc1nc(Br)cnc1N)c1c(F)ccc(F)c1Cl` (stereo not drawn) [II(c), 5-Bromo-3-[1-(2-chloro-3,6-difluoro-phenyl)-ethoxy]-pyrazin-2-ylamine], 1.81 µM and 2.67 µM; as for `Nc1ncc(Br)nc1OCc1c(Cl)cccc1Cl` [II(a), 5-Bromo-3-(2,6-dichloro-benzyloxy)-pyrazin-2-ylamine], over 20 µM.
As for `Nc1ncc(-c2ccccc2C(F)(F)F)cc1OCc1c(Cl)cccc1Cl` [Example I-23, 3-(2,6-Dichloro-benzyloxy)-5-(2-trifluoromethyl-phenyl)-pyridin-2-ylamine], the IC50 is over 20 µM.
With `Nc1ncc(-c2cccc(NS(=O)(=O)CCN3CCCC3)c2)nc1OCc1c(F)ccc(F)c1Cl` [II-27, 2-Pyrrolidin-1-yl-ethanesulfonic acid {3-[5-amino-6-(2-chloro-3,6-difluoro-benzyloxy)-pyrazin-2-yl]-phenyl}-amide], the IC50 was found to be 1.8 µM.
In the case of `CC(Oc1nc(-c2ccc(NC(=O)N3CC[C@H](N)C3)cc2)cnc1N)c1c(Cl)ccc(F)c1Cl` (stereo partly drawn) [II-191, (S)-3-Amino-pyrrolidine-1-carboxylic acid (4-{5-amino-6-[1-(2,6-dichloro-3-fluoro-phenyl)-ethoxy]-pyrazin-2-yl}-phenyl)-amide], the 50% inhibitory concentration (IC50) is 3 µM.
Same read-out and setting: the same measure for `CN1CCN(C(=O)c2ccc(-c3cnc(N)c(OCc4c(F)ccc(F)c4Cl)n3)s2)CC1` [II-194, {5-[5-Amino-6-(2-chloro-3,6-difluoro-benzyloxy)-pyrazin-2-yl]-thiophen-2-yl)(4-methyl-piperazin-1-yl)-methanone]: 0.62 µM; for `Nc1ncc(-c2ccc(OCCN3CCOCC3)cc2)nc1OCc1c(Cl)cccc1Cl` [II-4, 3-(2,6-Dichloro-benzyloxy)-5-[4-(2-morpholin-4-yl-ethoxy)-phenyl]-pyrazin-2-ylamine]: 1.25 µM.
On to `Nc1ncc(-c2cccc3[nH]ccc23)cc1OCc1c(F)cccc1F` [Example I-119, 3-(2,6-Difluoro-benzyloxy)-5-(1H-indol-4-yl)-pyridin-2-ylamine], for which the IC50 worked out at 5.8 µM.
Still for that read-out and setting: as for `CC(=O)N1CCN(CCNC(=O)c2cccc(-c3cnc(N)c(OC(C)c4c(F)ccc(F)c4Cl)n3)c2)CC1` (stereo not drawn) [II-101, N-[2-(4-Acetyl-piperazin-1-yl)ethyl]-3-{5-amino-6-[1-(2-chloro-3,6-difluoro-phenyl)-ethoxy]-pyrazin-2-yl}-benzamide], the figure is 0.64 µM; as for `COc1ccccc1-c1cnc(N)c(OCc2c(Cl)cccc2Cl)c1` [Example I-24, 3-(2,6-Dichloro-benzyloxy)-5-(2-methoxy-phenyl)-pyridin-2-ylamine], 11.5 µM; as for `C[C@@H]1CN(Cc2c[nH]c3ccc(-c4cnc(N)c(OCc5c(F)ccc(F)c5Cl)n4)cc23)C[C@H](C)O1` [II-65, 3-(2-Chloro-3,6-difluoro-benzyloxy)-5-[3-(2,6-dimethyl-morpholin-4-ylmethyl)-1H-indol-5-yl]-pyrazin-2-ylamine], 2.4 µM.
In the case of `CC(Oc1nc(-c2ccc(C(=O)N3CCN(C)CC3)cn2)cnc1N)c1c(Cl)ccc(F)c1Cl` (stereo not drawn) [II-199, 3-[1-(2,6-dichloro-3-fluoro-phenyl)ethoxy]-5-{5-[(4-methylpiperazin-1-yl)carbonyl]-pyridin-2-yl}pyrazin-2-amine trifluoroacetate], the IC50 was 0.15 µM.
Still for that read-out and setting: as for `Nc1ncc(-c2ccc3[nH]cc(CN4CCCCC4)c3c2)cc1OCc1c(Cl)cccc1Cl` [Example I-62, 3-(2,6-Dichloro-benzyloxy)-5-(3-piperidin-1-ylmethyl-1H-indol-5-yl)-pyridin-2-ylamine], the figure is 1.41 µM; as for `Nc1ncc(-c2ccc(OCC(=O)N3CCC[C@@H]3CN3CCCC3)cc2)cc1OCc1c(F)cccc1F` [Example I-126, 2-{4-[6-Amino-5-(2,6-difluoro-benzyloxy)-pyridin-3-yl]-phenoxy}-1-[(2R)-2-pyrrolidin-1-ylmethyl-pyrrolidin-1-yl]-ethanone], 3.58 µM.
